Data: US20160046618A1, “Cyclopropyl Fused Thiazin-2-Amine Compounds as Beta-Secretase Inhibitors and Methods of Use” (AMGEN INC., priority 2014, published 2016)

Tests used:
human recombinant BACE2 = human recombinant BACE2 (Homo sapiens (Human), UniProt Q9Y5Z0); assay: In vitro enzymatic BACE2 FRET assay; assay type: biochemical; conditions: read-out: IC50 IP (μM) BACE2 enzyme
Method in brief: (§1)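 Tris addition raises the pH to neutral to stop the reaction before fluorescence is measured at 590 nm emission with 488 nm excitation.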

Recombinant Cat D = Recombinant Cat D (Homo sapiens (Human), UniProt P07339); assay: In vitro enzymatic Cathepsin D (Cat D) FRET assay; assay type: biochemical; conditions: read-out: IC50 IP (μM) CatD
Method in brief: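 Human Cat D expressed in CHO cells was incubated for one hour in 0.05 M citrate pH 3.5, 5 mM CHAPS, 10% DMSO final, with 20 nM quenched FRET peptide substrate. Reactions were stopped with Tris buffer raising pH to neutrality. Cleavage was read as fluorescence at excitation 500 nm, emission 580 nm.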

human recombinant BACE1 = human recombinant BACE1 (Homo sapiens (Human), UniProt P56817); assay: In vitro enzymatic BACE1 FRET assay; assay type: biochemical; conditions: read-out: IC50 IP (μM) BACE1 enzyme
Method in brief: as §1

[1] = tested on: Aβ40 in conditioned medium of cells stably expressing Amyloid Precursor Protein (APP); assay: In vitro BACE-1 cell-based assay (Aβ40 sandwich ELISA); conditions: read-out: IC50 IP (μM) BACE1 cell
Method in brief: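 Read-out: time-resolved fluorescence (Streptavidin-Europium) of Aβ40 captured by pAb40 and detected with biotinylated 6E10 from supernatants of APP-stable cells. Cells were exposed to compound for 24 h, 10-point dose response, top dose 100 μM or 10 μM, 0.1% DMSO. IC50 fitted to percent of control.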

Sequence of human recombinant BACE2 (Q9Y5Z0 63-518): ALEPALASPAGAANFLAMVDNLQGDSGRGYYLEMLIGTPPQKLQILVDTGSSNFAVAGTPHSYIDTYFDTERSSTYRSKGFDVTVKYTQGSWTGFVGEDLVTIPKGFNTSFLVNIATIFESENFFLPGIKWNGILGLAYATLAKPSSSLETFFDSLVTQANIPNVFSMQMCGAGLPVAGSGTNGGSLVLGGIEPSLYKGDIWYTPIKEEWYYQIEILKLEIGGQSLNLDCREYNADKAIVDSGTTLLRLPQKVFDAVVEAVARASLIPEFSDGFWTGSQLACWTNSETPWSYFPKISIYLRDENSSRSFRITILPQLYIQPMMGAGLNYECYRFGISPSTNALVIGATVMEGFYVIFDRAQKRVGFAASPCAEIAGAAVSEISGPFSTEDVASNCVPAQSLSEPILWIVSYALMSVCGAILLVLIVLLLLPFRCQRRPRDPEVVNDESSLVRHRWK
Sequence of Recombinant Cat D (P07339 65-412): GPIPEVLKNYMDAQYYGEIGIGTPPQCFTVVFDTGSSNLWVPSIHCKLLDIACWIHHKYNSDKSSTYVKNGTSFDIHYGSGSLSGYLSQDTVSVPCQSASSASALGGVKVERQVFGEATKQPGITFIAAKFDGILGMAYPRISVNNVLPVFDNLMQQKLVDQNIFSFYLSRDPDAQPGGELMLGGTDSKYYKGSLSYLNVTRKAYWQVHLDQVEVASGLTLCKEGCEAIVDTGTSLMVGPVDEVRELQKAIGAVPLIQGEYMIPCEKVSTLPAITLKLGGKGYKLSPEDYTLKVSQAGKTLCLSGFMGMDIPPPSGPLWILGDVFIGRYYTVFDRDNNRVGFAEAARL
Sequence of human recombinant BACE1 (P56817 46-501): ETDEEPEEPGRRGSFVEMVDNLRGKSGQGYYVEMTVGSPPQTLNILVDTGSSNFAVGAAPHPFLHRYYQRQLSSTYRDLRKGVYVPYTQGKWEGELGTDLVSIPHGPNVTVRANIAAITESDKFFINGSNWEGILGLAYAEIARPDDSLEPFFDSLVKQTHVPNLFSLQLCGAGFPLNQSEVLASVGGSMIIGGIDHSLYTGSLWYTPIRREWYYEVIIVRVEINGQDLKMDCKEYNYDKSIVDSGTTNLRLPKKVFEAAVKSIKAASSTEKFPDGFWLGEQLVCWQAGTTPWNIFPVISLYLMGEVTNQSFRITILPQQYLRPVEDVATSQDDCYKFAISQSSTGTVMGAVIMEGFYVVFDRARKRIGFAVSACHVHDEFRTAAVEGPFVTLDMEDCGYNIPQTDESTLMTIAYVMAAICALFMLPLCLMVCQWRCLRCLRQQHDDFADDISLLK

| Compound | IC50 (human recombinant BACE2) [µM] | IC50 (Recombinant Cat D) [µM] | IC50 (human recombinant BACE1) [µM] | IC50 [1] [µM] |
| --- | --- | --- | --- | --- |
| COc1ncc(NC(=O)c2ccc(Cl)cn2)cc1[C@@]1(C)N=C(N)S[C@@]2(CF)C[C@H]21 [Example 624, N-(5-((1S,5S,6S)-3-amino-1-(fluoromethyl)-5-methyl-2-thia-4-azabicyclo[4.1.0]hept-3-en-5-yl)-6-methoxy-3-pyridinyl)-5-chloro-2-pyridinecarboxamide] | 0.00394 | > 400 | 0.0298 | 0.0435 |
| C#CCOc1cnc2c(Nc3cnc(OC)c([C@@]4(C)N=C(N)S[C@@]5(CF)C[C@H]54)c3)ncnc2c1 [Example 625, N-(5-((1S,5S,6S)-3-amino-1-(fluoromethyl)-5-methyl-2-thia-4-azabicyclo[4.1.0]hept-3-en-5-yl)-6-methoxy-3-pyridinyl)-7-(2-propyn-1-yloxy)pyrido[3,2-d]pyrimidin-4-amine] | 0.401 | 730 | 0.0309 | 0.014 |
| COc1ncc(Nc2nccc3nc(OCc4ncco4)cnc23)cc1[C@@]1(C)N=C(N)S[C@@]2(CF)C[C@H]21 [Example 626, N-(5-((1S,5S,6S)-3-amino-1-(fluoromethyl)-5-methyl-2-thia-4-azabicyclo[4.1.0]hept-3-en-5-yl)-6-methoxy-3-pyridinyl)-2-(1,3-oxazol-2-ylmethoxy)pyrido[3,4-b]pyrazin-5-amine] | 0.2 | 1080 | 0.0164 | 0.00509 |
| COC[C@]12C[C@H]1[C@@](C)(c1cc(Nc3nccc4cc(OC)cnc34)cc(F)c1F)N=C(N)S2 [Example 629, N-(3-((1S,5S,6S)-3-amino-1-(methoxymethyl)-5-methyl-2-thia-4-azabicyclo[4.1.0]hept-3-en-5-yl)-4,5-difluorophenyl)-3-methoxy-1,7-naphthyridin-8-amine] | 0.0582 | 2880 | 0.0365 | 0.0205 |
| C#CCOc1cnc2c(Nc3cc(F)c(F)c([C@@]4(C)N=C(N)S[C@@]5(S(C)(=O)=O)C[C@H]54)c3)nccc2n1 [Example 630, N-(3-((1R,5S,6S)-3-amino-5-methyl-1-(methylsulfonyl)-2-thia-4-azabicyclo[4.1.0]hept-3-en-5-yl)-4,5-difluorophenyl)-2-(2-propyn-1-yloxy)pyrido[3,4-b]pyrazin-5-amine] | 0.00547 | 74.9 | 0.000443 | 0.00528 |
| C#CCOc1cnc2c(Nc3ccc(F)c([C@@]4(C)N=C(N)S[C@@]5(C(=O)N6CCCC6)C[C@H]54)c3)nccc2n1 [Example 632, N-(3-((1S,5S,6S)-3-amino-5-methyl-1-(1-pyrrolidinylcarbonyl)-2-thia-4-azabicyclo[4.1.0]hept-3-en-5-yl)-4-fluorophenyl)-2-(2-propyn-1-yloxy)pyrido[3,4-b]pyrazin-5-amine] | 0.00302 | 961 | 0.000715 | 0.000535 |
| C#CCOc1cnc(C(=O)Nc2ccc(F)c([C@@]3(C)N=C(N)S[C@@]4(C(=O)N5CCCC5)C[C@H]43)c2)cn1 [Example 633, N-(3-((1S,55,6S)-3-amino-5-methyl-1-(1-pyrrolidinylcarbonyl)-2-thia-4-azabicyclo[4.1.0]hept-3-en-5-yl)-4-fluorophenyl)-5-(2-propyn-1-yloxy)-2-pyrazinecarboxamide] | 0.00165 | 67.5 | 0.00036 | 0.000224 |
| C[C@]1(c2cc(NC(=O)c3cnc(OCC(F)(F)F)cn3)ccc2F)N=C(N)S[C@@]2(C(=O)N3CCCC3)C[C@H]21 [Example 634, N-(3-((1S,5S,6S)-3-amino-5-methyl-1-(1-pyrrolidinylcarbonyl)-2-thia-4-azabicyclo[4.1.0]hept-3-en-5-yl)-4-fluorophenyl)-5-(2,2,2-trifluoroethoxy)-2-pyrazinecarboxamide] | 0.00951 | 660 | 0.000758 | 0.000616 |
| COCCOc1cnc2c(Nc3ccc(F)c([C@@]4(CF)N=C(N)S[C@@]5(CF)C[C@H]54)c3)nccc2n1 [Example 635, N-(3-((1S,5S,6S)-3-amino-1,5-bis(fluoromethyl)-2-thia-4-azabicyclo[4.1.0]hept-3-en-5-yl)-4-fluorophenyl)-2-(2-methoxyethoxy)pyrido[3,4-b]pyrazin-5-amine] | 0.192 | > 400 | 0.00832 | 0.0208 |
| C[C@]1(c2cc(Nc3ncnc4cc(F)cnc34)cc(F)c2F)N=C(N)S[C@H]2C[C@H]21 [Example 636, (1S,5S,6S)-5-(2,3-difluoro-5-((7-fluoropyrido[3,2-d]pyrimidin-4-yl)amino)phenyl)-5-methyl-2-thia-4-azabicyclo[4.1.0]hept-3-en-3-amine] | 0.0298 | 996 | 0.0918 | 0.411 |
| C[C@]1(c2cc(NC(=O)c3ccc(Cl)cn3)cnc2F)N=C(N)S[C@H]2C[C@H]21 [Example 637, N-(5-((1S,5S,6S)-3-Amino-5-methyl-2-thia-4-azabicyclo[4.1.0]hept-3-en-5-yl)-6-fluoropyridin-3-yl)-5-chloropicolinamide] | 0.00261 | > 400 | 0.0213 | 0.0121 |
| C[C@]1(c2cc(Nc3nccc4[nH]c(=O)cnc34)cnc2F)N=C(N)S[C@H]2C[C@H]21 [Example 638, 5-((5-((1S,5S,6S)-3-amino-5-methyl-2-thia-4-azabicyclo[4.1.0]hept-3-en-5-yl)-6-fluoropyridin-3-yl)amino)pyrido[3,4-b]pyrazin-2(1H)-one] | 0.0314 | > 400 | 0.0625 | 0.0517 |
| C#CCOc1cnc2c(Nc3cnc(F)c([C@@]4(C)N=C(N)S[C@H]5C[C@H]54)c3)nccc2n1 [Example 639, (1S,5S,6S)-5-(2-fluoro-5-((2-(prop-2-yn-1-yloxy)pyrido[3,4-b]pyrazin-5-yl)amino)pyridin-3-yl)-5-methyl-2-thia-4-azabicyclo[4.1.0]hept-3-en-3-amine] | 0.0401 | 381 | 0.00157 | 0.00213 |
| C[C@]1(c2cc(Nc3nccc4cc(C#N)cnc34)cnc2F)N=C(N)S[C@H]2C[C@H]21 [Example 641, 8-((5-((1S,5S,6S)-3-amino-5-methyl-2-thia-4-azabicyclo[4.1.0]hept-3-en-5-yl)-6-fluoro-3-pyridinyl)amino)-1,7-naphthyridine-3-carbonitrile] | 0.00815 | 1430 | 0.0188 | 0.00799 |
| Cc1cc(OCc2ncco2)cnc1C(=O)Nc1ccc(F)c([C@@]2(C)N=C(N)S[C@@]3(C(F)F)C[C@@H]23)c1 [Example 642, N-(3-((1S,5S,6S)-3-amino-1-(difluoromethyl)-5-methyl-2-thia-4-azabicyclo[4.1.0]hept-3-en-5-yl)-4-fluorophenyl)-3-methyl-5-(1,3-oxazol-2-ylmethoxy)-2-pyridinecarboxamide] | 0.114 | 434 | 0.00642 | 0.0351 |
| Cc1cc(OCc2ncco2)cnc1C(=O)Nc1cc(F)c(F)c([C@@]2(C)N=C(N)S[C@@]3(C(F)F)C[C@@H]23)c1 [Example 643, N-(3-((1S,5S,6S)-3-amino-1-(difluoromethyl)-5-methyl-2-thia-4-azabicyclo[4.1.0]hept-3-en-5-yl)-4,5-difluorophenyl)-3-methyl-5-(1,3-oxazol-2-ylmethoxy)-2-pyridinecarboxamide] | 0.134 | 751 | 0.00246 | 0.0328 |
